{"source": "patent US20050119275A1", "about": "“Salt and crystal forms of (5-chloro-2-{2-[4-(4-fluoro-benzyl)-(2R,5S)-2,5-dimethyl-piperazin-1-yl]-2-oxo-ethoxy}-phenyl)-methanesulfonic acid” (Pfizer Inc., priority 2003, published 2005)", "key": {"CCR1 [1]": {"biological_target": "T1, CCR1 (Homo sapiens, UniProt P32246)", "T1 sequence (P32246 1-355)": "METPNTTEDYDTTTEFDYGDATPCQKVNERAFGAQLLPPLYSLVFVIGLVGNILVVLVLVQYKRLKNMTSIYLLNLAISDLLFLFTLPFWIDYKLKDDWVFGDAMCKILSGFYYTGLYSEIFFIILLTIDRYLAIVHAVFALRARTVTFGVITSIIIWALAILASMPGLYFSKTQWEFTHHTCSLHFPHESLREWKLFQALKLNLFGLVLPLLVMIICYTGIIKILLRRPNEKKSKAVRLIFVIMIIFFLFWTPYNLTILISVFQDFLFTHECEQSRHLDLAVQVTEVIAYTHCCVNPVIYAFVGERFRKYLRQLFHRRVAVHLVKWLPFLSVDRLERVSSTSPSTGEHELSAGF", "assay": "Chemotaxis assay (Boyden chamber, MIP-1α induced migration)", "format": "cell-based", "set-up": "THP-1 cells (ATCC TIB-202), primary human monocytes, or primary lymphocytes, isolated by standard techniques can then be added to the upper chambers; endogenous in cells; host or cells: THP-1 cells (ATCC TIB-202), primary human monocytes or primary lymphocytes", "details": "statement in words", "source_text": "The activity of the compounds of the invention can be assessed according to procedures know to those of ordinary skill in the art. Examples of recognized methods for determining CCR1 induced migration can be found in Coligan, J. E., Kruisbeek, A. M., Margulies, D. H., Shevach, E. M., Strober, W. editors: Current Protocols In Immunology, 6.12.1-6.12.3. (John Wiley and Sons, NY, 1991). One specific example of how to determine the activity of a compound for inhibiting migration is described in detail below.\nThe ability of compounds to inhibit the chemotaxis to various chemokines can be evaluated using standard 48 or 96 well Boyden Chambers with a 5 micron polycarbonate filter. […] The amount of agonist chosen is that determined to give the maximal amount of chemotaxis in this system (e.g., 1 nM for MIP-1α should be adequate). […]\nAfter a suitable incubation period at 37 degrees centigrade (e.g. 3.5 hours for THP-1 cells, 90 minutes for primary monocytes), the chamber is removed, the cells in the upper chamber aspirated, the upper part of the filter wiped and the number of cells migrating can be determined according to the following method.\nFor THP-1 cells, the chamber (a 96 well variety manufactured by Neuroprobe) can be centrifuged to push cells off the lower chamber and the number of cells can be quantitated against a standard curve by a color change of the dye fluorocein diacetate. […]"}, "CCR1 [2]": {"biological_target": "T1, CCR1", "assay": "Inhibition of MIP-1α (CCL3) binding to its receptor CCR1", "details": "CCR1 found on inflammatory and immunomodulatory cells; statement in words"}}, "data": [{"smiles": "C[C@@H]1CN(Cc2ccc(F)cc2)[C@@H](C)CN1C(=O)COc1ccc(Cl)cc1CS(=O)(=O)O", "note": "[(5-Chloro-2-{2-[4-(4-fluoro-benzyl)-(2R,5S)-2,5-dimethyl-piperazin-1-yl]-2-oxo-ethoxy}-phenyl)-methanesulfonic acid]", "values": [{"measurement": "inhibition of MIP-1α (and related chemokines) induced chemotaxis of THP-1 cells and human leukocytes", "setting": "CCR1 [1]", "result": "inhibits"}, {"measurement": "inhibition of MIP-1α (CCL3) binding to its receptor CCR1", "setting": "CCR1 [2]", "result": "potent inhibitor"}]}]}
